Test results reported in article PMC4468427, “Antiviral activity of silymarin against chikungunya virus” (Scientific Reports, 2015).
Converted amounts (≈) assume the structure as drawn. “Also recorded” adds a separate entry of the source. Where two headings read alike, the source gives them in different places.

Key:
[1] = MTS cytotoxicity assay on BHK-21 cells; settings: hamster
BHK-21 cells = experiment: MTS cytotoxicity assay on BHK-21 cells; settings: BHK-21 cells, MTS assay, 2 days; more than 95% of treated cells viable
CHIKV [2] = experiment: Post-entry virus yield assay, CHIKV RNA copy number by qRT-PCR; settings: for Inhibitory effect against CHIKV replication (RNA copy number): virus yield assay, qRT-PCR, Vero cells
[3] = MTS cytotoxicity assay on Vero cells; settings: African green monkey
Vero cells = experiment: MTS cytotoxicity assay on Vero cells; settings: Vero cells, MTS assay, 2 days; more than 95% of treated cells viable
CHIKV [4] = experiment: Primary screening: CPE inhibition assay (confirmed by MTS) in CHIKV-infected Vero cells; settings: for Antiviral activity in CPE inhibition and MTS assays: MOI = 1, 48 h; for CPE inhibitory activity: highest concentrations (tested as high as 200 μg/ml), MOI = 1, 48 hpi
CHIKV replicon = system: CHIKV replicon; design: method as in PMID 22205980; settings: previous study, cited from earlier work

Structure (SMILES) | CC50 at 2 days [1] [µg/mL] | MNTD (maximum non-toxic dose) (BHK-21 cells) [µg/mL] | Inhibitory effect against CHIKV replication (RNA copy number) (CHIKV [2]) | CC50 at 48 h [3] [µg/mL] | MNTD (maximum non-toxic dose) (Vero cells) [µg/mL] | Antiviral activity in CPE inhibition and MTS assays (CHIKV [4]) | CPE inhibitory activity (CHIKV [4]) [%] | IC50 (CHIKV [2]; Chikungunya virus, Vero) [µg/mL] | IC50 (CHIKV replicon; converted from μM) | IC50 (CHIKV replicon; read-out: IC50) [µM]
O=c1c(O)c(-c2ccc(O)cc2)oc2cc(O)cc(O)c12 [Kaempferol] | 537 (≈ 1880 µM) | >200 | neither kaempferol nor quercetin showed any significant inhibitory effect; also recorded: no significant inhibitory effect | > 1000 | >400 | neither kaempferol nor quercetin showed significant antiviral activity | 25 | – | – | –
O=c1c(O)c(-c2ccc(O)c(O)c2)oc2cc(O)cc(O)c12 [Quercetin] | > 800 | >500 | neither kaempferol nor quercetin showed any significant inhibitory effect; also recorded: no significant inhibitory effect | > 1000 | >400 | neither kaempferol nor quercetin showed significant antiviral activity | 25 | – | – | –
COc1cc(C2Oc3cc([C@H]4Oc5cc(O)cc(O)c5C(=O)[C@@H]4O)ccc3OC2CO)ccc1O (stereo partly shown) [Silybin] | – | – | – | > 200 | >50 | – | – | 69.7 (≈ 144 µM) | approximately 30 μg/ml | 59.8
